Entries after “also recorded” stand apart in the source; their conditions may differ.
Experiments:
rat INS-1 β-cells = experiment: MTS cell viability: protection of INS-1 β-cells from STZ, Example 3; format: cell-based; conditions: for protection of INS-1 cells from STZ (relative viability): different concentrations of alpha- or gamma-tocopherol, overnight pre-incubation, then 24 hours with STZ 1 mM
Method: INS-1 cells were cultured overnight in 96 well culture plates in a humidified incubator at 37° C., in the presence or absence of different concentrations of alpha- or gamma-tocopherol and then in the presence of a combination of equimolar parts of gamma- and alpha-tocopherol (25 μM gamma-, 25 μM alpha-tocopherol). The cells at each condition were then cultured for an additional 24 hours either in the presence or absence of STZ (1 mM). Alpha-tocopherol and gamma-tocopherol concentrations in each well were kept the same as those used in the pre-incubation phase. Cell viability was measured with the MTS assay. Results were normalized and values were expressed relative to control (relative viability).

[1] = system: Retinal endothelial cells; experiment: MTS cell viability: protection of retinal endothelial cells from 25 mM glucose and 2 mM palmitate, Example 2; format: cell-based, Rhesus monkey; conditions: tocopherol used alone; overnight pre-incubation, then 8 hours with 25 mM glucose and 2 mM palmitate
Method: Retinal endothelial cells were cultured overnight in 96 well culture plates in a humidified incubator at 37° C., in the presence or absence of either 50 μM of alpha-tocopherol, 50 μM of gamma-tocopherol or 25 μM alpha-tocopherol plus 25 μM gamma-tocopherol when used in combination. The cells at each condition were then cultured for an additional 8 hours either in the presence or absence of 25 mM glucose and 2 mM palmitate. Alpha-tocopherol and gamma-tocopherol concentrations in each well were kept the same as those used in the pre-incubation phase. Cell viability was measured with the MTS assay. Results were normalized and values were expressed relative to basal glucose control (relative viability).

[2] = system: Rhesus monkey retinal endothelial cells (ATCC CRL-1780); experiment: MTS cell viability of retinal endothelial cells exposed to hyperglycemia and elevated FFA (palmitate), Example 1; format: cell-based; conditions: hyperglycemia (25 mM glucose) and elevated FFA (1 and 2 mM palmitate), overnight
Method: Rhesus monkey retinal endothelial cells (ATCC CRL-1780) were cultured overnight in 96 well culture plates in a humidified incubator at 37° C., under either basal (5 mM) or hyperglycemic (25 mM) conditions in the absence FFA or in with a 1 and 2 mM palmitate concentration illustrating an elevated FFA environment. At the end of the incubation period endothelial cell viability was measured with the MTS assay and results were expressed relative to the control (5 mM glucose no FFA). The results are shown in Table 1, where error bars represent standard deviations from the mean of triplicate measurements per condition. The relative viability of endothelial cells exposed to hyperglycemia and elevated FFA, as compared to the control, was about 45%. The data in Table 1 illustrates that FFA are cytotoxic to retinal endothelial cells and that their cytotoxicity is enhanced by hyperglycemia. [drawing]

CN(N=O)C(=O)N[C@@H]1[C@@H](O)[C@H](O)[C@@H](CO)O[C@@H]1O [STZ]
effect of STZ on viability of INS-1 cells (rat INS-1 β-cells; STZ 1 mM, 24 hours): reduced viability

Cc1c(O)cc2c(c1C)O[C@](C)(CCC[C@H](C)CCC[C@H](C)CCCC(C)C)CC2 [gamma-tocopherol]
protection of INS-1 cells from STZ (relative viability) (rat INS-1 β-cells): protected from these effects in a dose dependent manner; also recorded: more effective than alpha-tocopherol

Cc1c(C)c2c(c(C)c1O)CC[C@@](C)(CCC[C@H](C)CCC[C@H](C)CCCC(C)C)O2 [alpha-tocopherol]
relative cell viability (relative to basal glucose control) [1]: 40 to 50% | protection of INS-1 cells from STZ (relative viability) (rat INS-1 β-cells): protected from these effects in a dose dependent manner

CCCCCCCCCCCCCCCC(=O)O [palmitate]
relative viability of endothelial cells as compared to the control (5 mM glucose no FFA) [2]: about 45%

From patent US20050074447A1, “Treatment for diabetic microvascular and macrovascular complications” (priority 2003, published 2005)
